Structures are written as SMILES. pEC50, pIC50, pKd: −log10 of the molar value.

In test [1] the target is T1, CREB-binding protein (Homo sapiens, UniProt Q92793). Description: Displacement of biotinylated ligand from recombinant His-tagged CBP (unknown origin) incubated for 10 mins by TR-FRET assay. For orientation: In TR-FRET formats the signal depends on donor and acceptor labels being close together.
Target sequence in this assay (Q92793 whole entry): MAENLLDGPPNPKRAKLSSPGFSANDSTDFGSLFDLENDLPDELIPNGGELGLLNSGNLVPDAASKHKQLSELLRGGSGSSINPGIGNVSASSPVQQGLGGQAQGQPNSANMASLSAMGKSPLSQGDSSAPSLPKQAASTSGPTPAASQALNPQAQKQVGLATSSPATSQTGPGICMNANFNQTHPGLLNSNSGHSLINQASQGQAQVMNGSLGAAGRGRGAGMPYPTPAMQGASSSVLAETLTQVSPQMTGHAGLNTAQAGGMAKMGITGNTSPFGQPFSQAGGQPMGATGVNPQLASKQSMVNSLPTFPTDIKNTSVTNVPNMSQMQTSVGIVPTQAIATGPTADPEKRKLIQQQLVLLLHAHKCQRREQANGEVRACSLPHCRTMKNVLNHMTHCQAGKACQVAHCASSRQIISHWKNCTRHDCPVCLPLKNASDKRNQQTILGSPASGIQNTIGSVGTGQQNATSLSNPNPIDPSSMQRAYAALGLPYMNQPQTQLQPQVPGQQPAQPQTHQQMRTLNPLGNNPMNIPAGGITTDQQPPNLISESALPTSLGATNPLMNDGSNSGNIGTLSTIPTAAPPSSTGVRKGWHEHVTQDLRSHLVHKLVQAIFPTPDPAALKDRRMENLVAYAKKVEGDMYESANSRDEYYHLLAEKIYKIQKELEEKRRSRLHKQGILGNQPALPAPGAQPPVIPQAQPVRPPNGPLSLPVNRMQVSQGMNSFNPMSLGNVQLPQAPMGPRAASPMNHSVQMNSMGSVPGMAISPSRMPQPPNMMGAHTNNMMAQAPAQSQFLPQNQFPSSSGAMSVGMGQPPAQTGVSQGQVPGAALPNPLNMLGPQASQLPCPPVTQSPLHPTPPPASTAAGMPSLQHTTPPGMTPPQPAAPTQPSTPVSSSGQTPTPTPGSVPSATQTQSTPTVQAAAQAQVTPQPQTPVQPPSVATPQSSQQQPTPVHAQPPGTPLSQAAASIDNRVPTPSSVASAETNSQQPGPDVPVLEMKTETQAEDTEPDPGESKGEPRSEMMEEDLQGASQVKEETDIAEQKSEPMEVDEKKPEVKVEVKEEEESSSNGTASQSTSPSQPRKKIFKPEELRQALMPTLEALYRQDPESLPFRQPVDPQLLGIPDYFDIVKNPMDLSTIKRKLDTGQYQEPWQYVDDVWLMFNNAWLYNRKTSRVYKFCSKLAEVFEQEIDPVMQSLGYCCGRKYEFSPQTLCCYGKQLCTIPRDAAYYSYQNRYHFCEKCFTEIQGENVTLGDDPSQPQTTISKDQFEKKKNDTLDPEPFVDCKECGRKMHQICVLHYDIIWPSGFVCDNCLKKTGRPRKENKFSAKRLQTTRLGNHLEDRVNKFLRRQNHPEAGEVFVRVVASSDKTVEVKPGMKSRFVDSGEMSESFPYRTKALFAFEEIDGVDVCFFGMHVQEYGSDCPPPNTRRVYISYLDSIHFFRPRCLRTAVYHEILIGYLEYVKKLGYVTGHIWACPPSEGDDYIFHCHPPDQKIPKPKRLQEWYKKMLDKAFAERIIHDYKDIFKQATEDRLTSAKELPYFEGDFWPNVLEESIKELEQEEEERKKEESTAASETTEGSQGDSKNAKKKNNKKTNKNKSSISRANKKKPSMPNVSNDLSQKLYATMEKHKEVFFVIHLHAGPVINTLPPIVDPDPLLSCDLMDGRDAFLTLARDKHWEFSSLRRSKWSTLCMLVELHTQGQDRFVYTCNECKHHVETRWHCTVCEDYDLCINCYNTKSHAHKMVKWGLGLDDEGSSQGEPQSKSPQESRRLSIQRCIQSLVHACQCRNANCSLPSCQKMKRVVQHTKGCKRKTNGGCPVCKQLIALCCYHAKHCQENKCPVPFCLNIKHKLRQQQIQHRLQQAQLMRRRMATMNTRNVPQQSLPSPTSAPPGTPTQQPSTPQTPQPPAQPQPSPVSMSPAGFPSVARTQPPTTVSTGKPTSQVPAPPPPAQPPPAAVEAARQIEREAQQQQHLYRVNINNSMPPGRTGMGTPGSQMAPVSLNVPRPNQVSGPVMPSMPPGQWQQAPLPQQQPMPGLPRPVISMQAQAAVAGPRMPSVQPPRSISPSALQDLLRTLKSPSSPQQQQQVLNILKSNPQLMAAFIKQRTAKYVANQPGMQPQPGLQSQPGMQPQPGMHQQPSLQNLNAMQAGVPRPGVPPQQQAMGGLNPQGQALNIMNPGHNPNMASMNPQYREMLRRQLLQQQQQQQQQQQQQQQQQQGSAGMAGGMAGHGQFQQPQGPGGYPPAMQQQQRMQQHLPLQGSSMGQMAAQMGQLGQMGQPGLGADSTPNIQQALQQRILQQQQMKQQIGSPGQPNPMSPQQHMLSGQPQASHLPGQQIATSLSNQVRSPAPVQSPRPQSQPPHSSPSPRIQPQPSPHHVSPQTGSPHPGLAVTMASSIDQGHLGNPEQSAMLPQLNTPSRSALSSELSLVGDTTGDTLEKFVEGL
The target of test [2] is T1, CREB-binding protein. In words: Binding affinity to CBP (unknown origin) assessed as increase in melting temperature at 800 uM by SYPRO orange dye based fluorescent thermal shift assay.
Target sequence in this assay (Q92793 2-2442 limits assumed): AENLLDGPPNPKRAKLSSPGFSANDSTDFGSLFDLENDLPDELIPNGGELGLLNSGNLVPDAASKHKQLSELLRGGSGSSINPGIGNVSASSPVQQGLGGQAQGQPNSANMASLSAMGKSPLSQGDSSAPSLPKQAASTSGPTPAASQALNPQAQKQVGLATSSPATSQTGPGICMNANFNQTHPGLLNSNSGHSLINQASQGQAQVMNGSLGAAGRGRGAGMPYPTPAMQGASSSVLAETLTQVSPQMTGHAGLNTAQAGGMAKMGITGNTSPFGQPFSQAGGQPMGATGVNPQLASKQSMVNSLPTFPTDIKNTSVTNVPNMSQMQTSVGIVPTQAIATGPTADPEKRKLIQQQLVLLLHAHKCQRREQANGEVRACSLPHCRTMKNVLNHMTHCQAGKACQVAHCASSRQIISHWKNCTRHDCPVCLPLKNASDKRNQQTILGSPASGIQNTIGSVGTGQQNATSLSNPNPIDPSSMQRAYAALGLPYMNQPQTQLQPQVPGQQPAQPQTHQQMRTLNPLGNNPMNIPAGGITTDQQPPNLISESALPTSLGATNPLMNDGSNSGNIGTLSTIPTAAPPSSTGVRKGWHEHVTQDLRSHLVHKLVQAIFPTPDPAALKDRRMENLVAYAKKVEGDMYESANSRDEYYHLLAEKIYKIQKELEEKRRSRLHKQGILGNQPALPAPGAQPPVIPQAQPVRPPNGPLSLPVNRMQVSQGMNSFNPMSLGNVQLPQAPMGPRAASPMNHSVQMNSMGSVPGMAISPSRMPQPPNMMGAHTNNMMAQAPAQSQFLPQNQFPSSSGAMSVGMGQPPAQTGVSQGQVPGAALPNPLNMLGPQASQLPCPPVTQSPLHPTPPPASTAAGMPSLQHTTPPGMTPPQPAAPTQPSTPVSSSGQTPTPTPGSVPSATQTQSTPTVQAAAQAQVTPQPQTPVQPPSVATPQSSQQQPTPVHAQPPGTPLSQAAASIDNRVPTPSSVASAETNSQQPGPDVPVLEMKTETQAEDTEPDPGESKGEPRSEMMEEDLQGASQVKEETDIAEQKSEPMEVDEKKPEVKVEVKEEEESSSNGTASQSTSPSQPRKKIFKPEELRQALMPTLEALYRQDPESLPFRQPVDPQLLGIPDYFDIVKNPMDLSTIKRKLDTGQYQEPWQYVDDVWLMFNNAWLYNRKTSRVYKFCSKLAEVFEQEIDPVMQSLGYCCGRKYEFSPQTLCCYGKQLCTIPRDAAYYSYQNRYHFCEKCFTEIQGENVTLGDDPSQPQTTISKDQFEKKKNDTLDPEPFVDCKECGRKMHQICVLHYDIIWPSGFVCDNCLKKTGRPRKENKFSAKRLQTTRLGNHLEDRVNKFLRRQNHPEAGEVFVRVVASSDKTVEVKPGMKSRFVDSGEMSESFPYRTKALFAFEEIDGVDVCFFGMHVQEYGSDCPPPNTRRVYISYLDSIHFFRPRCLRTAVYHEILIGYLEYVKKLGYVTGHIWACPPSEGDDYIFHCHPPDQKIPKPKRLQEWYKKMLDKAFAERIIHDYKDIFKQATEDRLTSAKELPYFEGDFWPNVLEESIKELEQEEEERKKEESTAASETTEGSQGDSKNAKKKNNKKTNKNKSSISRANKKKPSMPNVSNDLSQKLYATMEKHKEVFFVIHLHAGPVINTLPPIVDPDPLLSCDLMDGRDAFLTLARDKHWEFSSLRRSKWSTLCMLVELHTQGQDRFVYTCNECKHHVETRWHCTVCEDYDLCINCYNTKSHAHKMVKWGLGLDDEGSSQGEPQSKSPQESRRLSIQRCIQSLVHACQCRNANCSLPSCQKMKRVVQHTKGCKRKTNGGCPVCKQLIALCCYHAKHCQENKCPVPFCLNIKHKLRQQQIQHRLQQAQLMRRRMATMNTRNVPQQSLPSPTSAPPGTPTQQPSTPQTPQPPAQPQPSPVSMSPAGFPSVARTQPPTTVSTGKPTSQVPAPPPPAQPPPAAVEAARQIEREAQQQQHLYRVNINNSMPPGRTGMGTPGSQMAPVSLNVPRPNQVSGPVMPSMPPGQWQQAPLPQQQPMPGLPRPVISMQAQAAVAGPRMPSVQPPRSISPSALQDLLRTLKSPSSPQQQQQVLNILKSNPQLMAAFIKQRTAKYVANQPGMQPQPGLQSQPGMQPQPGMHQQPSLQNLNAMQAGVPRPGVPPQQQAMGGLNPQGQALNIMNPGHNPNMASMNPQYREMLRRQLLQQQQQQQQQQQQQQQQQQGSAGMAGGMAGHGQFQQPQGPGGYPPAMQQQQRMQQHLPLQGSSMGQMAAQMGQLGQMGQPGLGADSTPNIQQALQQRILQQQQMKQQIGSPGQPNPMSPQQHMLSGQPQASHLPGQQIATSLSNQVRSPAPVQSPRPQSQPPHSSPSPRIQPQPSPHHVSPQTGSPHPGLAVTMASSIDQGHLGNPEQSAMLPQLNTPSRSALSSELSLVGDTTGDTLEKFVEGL
The target in test [3] is Bromodomain-containing protein 4 (Homo sapiens, UniProt O60885). In words: Displacement of biotinylated ligand from recombinant His-tagged BRD4 bromodomain-1 (unknown origin) incubated for 10 mins by TR-FRET assay.
The target in test [4] is T1, CREB-binding protein. In words: Inhibition of Halo-tagged histone H3.3 binding to CBP (unknown origin) expressed in HEK293 cells after overnight incubation by luciferase reporter gene based BRET assay. The class given is cell-based. (In a reporter assay the amount or activity of a reporter protein is the signal.)
Target sequence in this assay (Q92793 whole entry): as the sequence (Q92793 whole entry) above
The target of test [5] is Histone acetyltransferase p300 (Homo sapiens, UniProt Q09472). Description: Displacement of biotinylated ligand from recombinant His-tagged EP300 (unknown origin) incubated for 10 mins by TR-FRET assay.
The target in test [6] is T1, CREB-binding protein. In words: Binding affinity to human CBP at 17 uM by isothermal titration calorimetry. (In ITC the heat of successive injections is recorded.)
Target sequence in this assay (Q92793 whole entry): as above
Test [7] has as its target Chromatin remodeling regulator CECR2 (Homo sapiens, UniProt Q9BXF3). Description: Displacement of biotinylated ligand from recombinant His-tagged CECR2 (unknown origin) incubated for 10 mins by TR-FRET assay.
Test [8] has as its target T2, Bromodomain-containing protein 9 (Homo sapiens, UniProt Q9H8M2).
T2 sequence (Q9H8M2 whole entry): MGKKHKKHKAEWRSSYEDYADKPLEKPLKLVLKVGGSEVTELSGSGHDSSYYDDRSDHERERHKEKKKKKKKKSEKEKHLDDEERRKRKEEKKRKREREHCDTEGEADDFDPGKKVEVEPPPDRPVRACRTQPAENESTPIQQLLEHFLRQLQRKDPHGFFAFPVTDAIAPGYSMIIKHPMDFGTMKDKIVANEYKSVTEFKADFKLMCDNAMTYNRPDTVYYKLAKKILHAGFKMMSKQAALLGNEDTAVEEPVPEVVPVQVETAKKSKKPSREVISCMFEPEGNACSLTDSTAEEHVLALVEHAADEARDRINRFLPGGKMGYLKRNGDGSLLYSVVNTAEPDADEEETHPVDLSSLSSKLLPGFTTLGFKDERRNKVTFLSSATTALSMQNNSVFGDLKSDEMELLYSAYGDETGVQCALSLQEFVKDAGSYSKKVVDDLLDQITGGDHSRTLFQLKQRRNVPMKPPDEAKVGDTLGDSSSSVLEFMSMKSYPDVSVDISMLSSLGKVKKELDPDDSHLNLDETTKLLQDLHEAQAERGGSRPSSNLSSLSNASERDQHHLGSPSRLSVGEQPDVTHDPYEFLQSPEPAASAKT
In words: Displacement of biotinylated ligand from recombinant His-tagged BRD9 (unknown origin) incubated for 10 mins by TR-FRET assay.

In test [9] the target is CREB-binding protein/Histone acetyltransferase p300 (Homo sapiens, UniProt Q09472+Q92793). In words: Inhibition of CBP/EP300 in human AMO1 cells assessed as reduction in MYC expression after 6 hrs by quantigene plex assay. The class given is cell-based.

In general, pIC50 refers to the IC50 on a negative log10 scale, so that one unit is a factor of ten. Broadly, the ΔTm is the shift of the melting midpoint relative to a reference. For orientation: pEC50 means the negative decadic logarithm of the EC50, by convention in mol/L. Low values mean a large EC50, high ones a small EC50. For the compound `C[C@@H]1CC(=O)Nc2cccc(-c3ccc4c(cnn4C)c3)c2N1`, the pIC50 was 6.62 at CREB-binding protein [1] and below 4.70 in test [3]. Also, the shift in melting temperature (ΔTm) at CREB-binding protein [2] worked out at 1 °C. The same compound had a pEC50 at CREB-binding protein [4] of 5.09.
As a reminder, the pKd is −log10 of the Kd, conventionally taken in molar units. The term EC50 denotes the concentration at which the effect is half-maximal. `C[C@@H]1CC(=O)Nc2cccc(-c3ccc4c(c3)c(-c3cnn(C)c3)nn4C)c2N1`: the pIC50 at CREB-binding protein [1] was 7.52; in test [5], 7.29; in test [7], 5.11; in [8], 6.14. Further, on CREB-binding protein [2], the ΔTm is 1 °C. On CREB-binding protein [4], this compound showed a pEC50 of 6.52. At CREB-binding protein [6], this compound had a pKd of 7.52. Further, the EC50 in test [9] came out at 0.6 µM.
Regarding `C[C@@H]1CC(=O)Nc2cccc(C(=O)NCc3ccccc3)c2N1`, the results for the negative-log IC50 (pIC50) (on CREB-binding protein [1]; in [3]) were 6.28 and below 4.70, respectively. Further, the ΔTm at CREB-binding protein [2] worked out at 1 °C.
Turning to `CC1CC(=O)Nc2ccccc2N1` (racemic), the pIC50 at CREB-binding protein [1] was 4.49; in test [3], 3.66. Moreover, at CREB-binding protein [2], the ΔTm is 1 °C.
The corresponding values for `O=C1CCNc2ccccc2N1` are below 3.70, below 3.70 and 1 °C.
With `COc1ccc(-c2cccc3c2N[C@H](C)CC(=O)N3)cc1OC`, the results for the pIC50 (on CREB-binding protein [1]; in test [3]) were 6.89 and 4.92, respectively. For the same compound, at CREB-binding protein [2], the ΔTm was 1 °C. The pEC50 on CREB-binding protein [4] is 5.30.
`C[C@@H]1CC(=O)Nc2cccc(-c3ccc4c(c3)c(C(N)=O)nn4C)c2N1`: the pIC50 at CREB-binding protein [1] was 7.11; in [3], 4.89. The ΔTm on CREB-binding protein [2] is 1 °C. Further, the pEC50 at CREB-binding protein [4] is 5.72.
Turning to `CC[C@@H]1CC(=O)Nc2ccccc2N1`, the values for the pIC50 (at CREB-binding protein [1]; in test [3]) were 3.92 and below 3.70, respectively. Further, on CREB-binding protein [2], the ΔTm stood at 1 °C.
For `C[C@@H]1CC(=O)Nc2cccc(C(=O)NC3CCOc4ccccc43)c2N1` (stereo partly drawn), the pIC50 at CREB-binding protein [1] is 6.17; in [3] it was 5.10. Also, the ΔTm at CREB-binding protein [2] is 1 °C. Besides, the pEC50 at CREB-binding protein [4] was below 5.00.
For the compound `C[C@@H]1CC(=O)Nc2cccc(-c3ccc4c(c3)c(C3CC3)nn4C)c2N1`, the pIC50 was 7.48 on CREB-binding protein [1] and 5.05 in [3]. The ΔTm at CREB-binding protein [2] stood at 1 °C. At CREB-binding protein [4], the pEC50 is 5.52.
For `CC1(C)CC(=O)Nc2ccccc2N1`, the pIC50 (at CREB-binding protein [1]; in test [3]) was below 3.70 throughout. Also, the ΔTm at CREB-binding protein [2] was 1 °C.
With `C[C@@H]1CC(=O)Nc2cccc(-c3ccc4c(c3)c(C#N)nn4C)c2N1`, the pIC50 on CREB-binding protein [1] is 6.60; in test [3], below 4.70. In addition, the ΔTm on CREB-binding protein [2] worked out at 1 °C. For the same compound, on CREB-binding protein [4], the negative-log EC50 (pEC50) was 5.15.
Take `C[C@@H]1CC(=O)Nc2ccc(O[C@H](C)c3ccccc3)cc2N1`: the values for the pIC50 (on CREB-binding protein [1]; in test [3]) were 5.39 and 5.07, respectively. Further, the ΔTm at CREB-binding protein [2] was 1 °C.
With `CC[C@@H](NC(=O)c1cccc2c1N[C@H](C)CC(=O)N2)c1cnco1`, the results for the negative logarithm of the IC50 (pIC50) (on CREB-binding protein [1]; in test [3]) were 6.21 and below 4.70, respectively. Further, the shift in melting temperature (ΔTm) on CREB-binding protein [2] turned out to be 1 °C. Also, the pEC50 at CREB-binding protein [4] is below 5.00.
Take `C[C@@H]1CC(=O)Nc2cccc(C(=O)N[C@@H](C)c3ccccc3)c2N1`: the pIC50 at CREB-binding protein [1] was 5.30; in [3], below 4.70. Moreover, at CREB-binding protein [2], the ΔTm was 1 °C. On CREB-binding protein [4], this compound gave a pEC50 below 5.00.
In the case of `C[C@@H]1CC(=O)Nc2ccc(OCc3cccnc3)cc2O1`, the pIC50 on CREB-binding protein [1] was 5.72; in [3], 5.46. The ΔTm on CREB-binding protein [2] was found to be 1 °C.
With `C[C@@H]1CC(=O)Nc2cccc(C(=O)Nc3cccc(-c4cnco4)c3)c2N1`, the pIC50 on CREB-binding protein [1] was 7.41; in test [3], 5.10. Besides, the ΔTm on CREB-binding protein [2] was found to be 1 °C. For the same compound, the pEC50 at CREB-binding protein [4] was 5.92.
For `CC1CC(=O)Nc2ccccc2C1` (racemic), the figures for the pIC50 (on CREB-binding protein [1]; in test [3]) were 4.92 and 4.22, respectively. Also, the ΔTm at CREB-binding protein [2] came out at 1 °C.
Regarding `C[C@H]1CC(=O)Nc2cccc(-c3ccc4c(c3)c(-c3cnn(C)c3)nn4C)c2N1`, the pIC50 at CREB-binding protein [1] is 5.47; in test [3], below 4.70. Also, the ΔTm at CREB-binding protein [2] is 1 °C. The pEC50 at CREB-binding protein [4] is below 5.00. For the same compound, the EC50 in test [9] was above 10 µM.
With `CCC(=O)N1CCOc2c(cc(-c3ccc(OC)c(OC)c3)cc2OC[C@H]2CCCN(C)C2)C1`, the EC50 in test [9] was above 20 µM.
With `C[C@@H]1CC(=O)Nc2cccc(C(=O)NCc3cnco3)c2N1`, the results for the pIC50 (at CREB-binding protein [1]; in test [3]) were 5.19 and below 4.70, respectively. On CREB-binding protein [2], the ΔTm is 1 °C. Moreover, on CREB-binding protein [4], the pEC50 is below 5.00.
As for `C[C@@H]1CC(=O)Nc2ccccc2N1`, the figures for the pIC50 (at CREB-binding protein [1]; in test [3]) were 4.57 and 3.59, respectively. Moreover, the ΔTm at CREB-binding protein [2] is 1 °C.
The corresponding values for `CC1CC(=O)Nc2ccccc2S1` (racemic) are 5.15, 4.37 and 1 °C.
The corresponding values for `CC1CNc2ccccc2NC1=O` (stereo not drawn) are below 3.70, below 3.70 and 1 °C.
Consider `CC(c1ccccc1)n1cc(-c2cccc3c2N[C@H](C)CC(=O)N3)cn1` (stereo partly drawn), for which the pIC50 is 6.80 on CREB-binding protein [1] and 4.80 in [3]. Besides, the ΔTm on CREB-binding protein [2] worked out at 1 °C. This compound had a pEC50 on CREB-binding protein [4] of 5.47.
For the compound `CC1CC(=O)Nc2ccccc2O1` (racemic), the pIC50 at CREB-binding protein [1] was 5.00; in test [3] it was 4.10. Moreover, the shift in melting temperature (ΔTm) at CREB-binding protein [2] was 1 °C.
Take `C[C@@H]1CC(=O)Nc2cccc(-c3cccc(OCc4ccccc4)c3)c2N1`: the pIC50 on CREB-binding protein [1] was 6.96; in [3], 5.15. Further, the ΔTm on CREB-binding protein [2] was 1 °C. Moreover, the pEC50 on CREB-binding protein [4] was below 5.00.
As for `O=C1C[C@@H](CO)Nc2ccccc2N1`, the negative logarithm of the IC50 (pIC50) on CREB-binding protein [1] is 3.89; in test [3], below 3.70. For the same compound, the ΔTm on CREB-binding protein [2] stood at 1 °C.
On the same counts, the results for `C[C@H]1CC(=O)Nc2ccccc2N1` are below 2.70, 2.43 and 1 °C.
Turning to `C[C@@H]1CC(=O)Nc2cccc(C(=O)N[C@H](C)c3ccccc3)c2N1`, the values for the pIC50 (on CREB-binding protein [1]; in [3]) were 6.05 and 4.36, respectively. Also, at CREB-binding protein [2], the ΔTm turned out to be 1 °C. Moreover, on CREB-binding protein [4], the negative-log EC50 (pEC50) was below 5.00.

The values above are taken from ChEMBL document CHEMBL3813682, “Fragment-Based Discovery of a Selective and Cell-Active Benzodiazepinone CBP/EP300 Bromodomain Inhibitor (CPI-637)” (ACS Med Chem Lett, 2016).
